Source: patent US20260091082A1, “CYCLIC PEPTIDE DERIVATIVE COMPOSITION FOR TREATING OR PREVENTING EYE DISEASE” (DKS Co. Ltd., priority 2022, published 2026)
Several values for one entry are separate records, joined by “and”; a condition that tells them apart may be missing. Identical values can stand only once.

Tested on: anterior chamber aqueous humor pressure load rat model
Assay: Retinal thickness (IPL, INL, ONL) in retinal damage model induced by anterior chamber aqueous humor pressure load
Assay type: in vivo, Rat; Slc: SD
Settings: for Thickness of INL (μm) / Thickness of IPL (μm) / Thickness of ONL (μm): 10 mg/mL intravenous (1 mL/kg once) about 30 minutes before ischemic load (test group 4), 14 days after model creation, mean ± S.E., 10 animals
Procedure: • Name: Compound 9 • Source: Synthesized in the above Examples • Used amount: 0.4 mL (50 mg/mL solution) • Storage conditions: Freezing, light shielding
Method for preparing test substance (1 mg/mL): A high concentration solution prepared at 50 mg/mL was diluted 50 times with a medium to prepare a 1 mg/mL administration solution.
• Name: MK-801 • Distributor: SIGMA-ALDRICH • Use amount: 0.0501 g • Storage condition: refrigerated (2° C. to 8° C.)
Method for preparing positive control substance (10 mg/mL): 0.0501 g was weighed out and made up to a total volume of 5 mL with a control substance (physiological saline).
• Species and strains: Rat; Slc: SD • Number of animals on arrival and sex: 50 males • Age in weeks at arrival: 6 weeks old • Body weight range at arrival: 147.2 to 170.0 g • Source: Japan SLC, Inc.
Grouping was performed two days before the first creation of the retinal damage model induced by an anterior chamber aqueous humor pressure load. Using the daily body weight as an index, stratified random allocation was performed using SAS (Ver. 9.3, SAS Institute Japan Ltd.) and EXSUS (Ver. 8.0, CAC Croit Corporation) so that an average value of the body weights of each group was approximately uniform.
• Administration route: Eyedrop administration, intravenous administration • Administration method (eyedrop): Eyedrop administration was performed on a treated eye (right eye) of a rat using a micropipette 4 times a day (at intervals of 1.5 hours or more). • Administration method (intravenous): The amount of administration solution, calculated from the body weight on the day of administration, was administered from the tail vein using a syringe and an injection needle about 30 minutes before ischemic load. • Time of administration: Administration was performed according to the following schedule.
1. 10 mg/kg xylazine hydrochloride was intramuscularly administered on the model creation day (day 0). A rat was placed in an anesthesia box and subjected to general anesthesia with isoflurane (5%, oxygen:nitrous oxide=1:3). When anesthesia was effective, the rat was taken out of the anesthesia box, an inhalation anesthetic mask was worn, and anesthesia was maintained with isoflurane (1% to 5%, oxygen nitrous oxide=1:3).
2. The body temperature was maintained at 37° C. with a warming mat, and a mydrin P ophthalmic solution was instilled in the right eye (treated eye) of the rat to dilate the pupil, then the cravit ophthalmic solution 1.5% (Santen Pharmaceutical Co., Ltd.) was instilled.
3. A bottle of an IV bag containing physiological saline was previously suspended so that a water surface was 155 cm (100 mmHg or more) higher than the eye of the rat. The IV bag was connected to a pediatric infusion set (Terumo Corporation), a 27 G injection needle thereof was inserted into and fixed to the anterior chamber while slightly dripping the liquid from a needle tip. The model was created in the light phase (6:00 to 18:00) in consideration of the diurnal variation of the intraocular pressure.
4. After the needle was inserted into the anterior chamber, pressure (100 mmHg or more) was loaded and maintained in the anterior chamber by associating the reflux system.
5. After an ischemic load for 45 minutes, the injection needle and the like were removed, the inhalation anesthetic mask was removed, and the rat was sufficiently woken up under a warming mat, and then returned to the cage.
6. For 2 days after surgery, 10 mg/kg xylazine hydrochloride was intramuscularly administered as an analgesic for the purpose of alleviating the pain after the treatment.
1. Fourteen days after model creation, general anesthesia was performed with isoflurane (5%, oxygen:nitrous oxide=1:3), euthanasia was then performed by exsanguination, a suture was placed as a marker at the 12 o'clock position of the ocular conjunctiva, and eyeball enucleation was performed.
2. […]

[1] = 10 mg/mL intravenous, right eye, 600 μm from optic disk, mean per animal
[2] = 10 mg/mL intravenous, right eye, 900 μm from optic disk, individual measurements per animal
[3] = 10 mg/mL intravenous, right eye, 900 μm from optic disk, mean per animal
[4] = MK-801, 10 mg/mL intravenous, right eye, individual animals 401-410
[5] = test group 4 (positive control, intravenous)

Which results are given for C[C@]12N[C@H](Cc3ccccc31)c1ccccc12 [MK-801, reference compound]?
Thickness of IPL (μm), Distance from Optic Disk 600 μm (10 mg/mL intravenous, right eye, 600 μm from optic disk, individual measurements per animal): 51.638 μm and 52.865 μm and 43.668 μm and 44.847 μm and 43.645 μm and 46.040 μm and 48.131 μm and 48.555 μm and 40.323 μm and 42.059 μm and 40.708 μm and 38.245 μm and 23.016 μm and 30.373 μm and 47.349 μm and 49.055 μm and 51.482 μm and 47.356 μm and 46.081 μm and 48.016 μm and 49.876 μm and 42.369 μm and 44.364 μm and 47.408 μm and 44.018 μm and 42.681 μm and 28.572 μm and 45.620 μm and 44.033 μm and 47.914 μm; Thickness of INL (μm), Distance from Optic Disk 600 μm, Mean [1]: 37.378 μm and 28.006 μm and 30.469 μm and 44.484 μm and 31.392 μm and 28.027 μm and 18.807 μm and 31.969 μm and 25.534 μm and 35.604 μm; Thickness of IPL (μm), Distance from Optic Disk 600 μm, Mean [1]: 51.460 μm and 43.628 μm and 44.683 μm and 48.031 μm and 42.133 μm and 40.545 μm and 27.320 μm and 47.341 μm and 47.624 μm and 47.337 μm; Thickness of INL (μm), Distance from Optic Disk 900 μm [2]: 38.448 μm and 33.242 μm and 40.306 μm and 28.655 μm and 32.584 μm and 30.110 μm and 27.670 μm and 26.653 μm and 27.205 μm and 46.278 μm and 47.196 μm and 49.419 μm and 26.256 μm and 28.272 μm and 28.572 μm and 28.638 μm and 29.653 μm and 28.909 μm and 18.887 μm and 19.638 μm and 20.068 μm and 28.079 μm and 29.083 μm and 31.101 μm and 27.776 μm and 27.037 μm and 27.422 μm and 33.221 μm and 42.252 μm and 40.931 μm; Thickness of IPL (μm), Distance from Optic Disk 900 μm [2]: 53.305 μm and 54.992 μm and 50.505 μm and 49.780 μm and 48.950 μm and 49.327 μm and 45.307 μm and 46.968 μm and 47.454 μm and 59.185 μm and 57.507 μm and 59.952 μm and 47.370 μm and 46.144 μm and 43.062 μm and 44.289 μm and 45.534 μm and 44.647 μm and 26.506 μm and 30.220 μm and 35.348 μm and 47.148 μm and 37.774 μm and 39.021 μm and 47.795 μm and 46.694 μm and 44.145 μm and 52.722 μm and 49.687 μm and 46.942 μm; Thickness of INL (μm), Distance from Optic Disk 900 μm, Mean [3]: 37.332 μm and 30.450 μm and 27.176 μm and 47.631 μm and 27.700 μm and 29.067 μm and 19.531 μm and 29.421 μm and 27.412 μm and 38.801 μm; Thickness of IPL (μm), Distance from Optic Disk 900 μm, Mean [3]: 52.934 μm and 49.352 μm and 46.576 μm and 58.881 μm and 45.525 μm and 44.823 μm and 30.691 μm and 41.314 μm and 46.211 μm and 49.784 μm; Thickness of INL (μm) (300 μm from optic disk): 28.96±1.66 μm; Thickness of IPL (μm) (300 μm from optic disk): 38.05±1.38 μm; Thickness of ONL (μm) (300 μm from optic disk): 42.08±1.66 μm; Thickness of INL (μm) (600 μm from optic disk): 31.17±2.21 μm; Thickness of IPL (μm) (600 μm from optic disk): 44.01±2.11 μm; Thickness of ONL (μm) (600 μm from optic disk): 45.28±1.75 μm; Thickness of INL (μm) (900 μm from optic disk): 31.45±2.48 μm; Thickness of IPL (μm) (900 μm from optic disk): 46.61±2.34 μm; Thickness of ONL (μm) (900 μm from optic disk): 45.02±1.52 μm; Thickness of ONL, distance from optic disk 300 μm (single measurement) [4]: 49.987 μm and 47.894 μm and 44.120 μm and 44.371 μm and 45.163 μm and 41.953 μm (2×) and 41.468 μm and 43.326 μm and 44.787 μm and 50.806 μm and 50.609 μm and 36.032 μm and 35.996 μm and 37.658 μm and 33.339 μm and 36.442 μm and 39.921 μm and 32.751 μm and 35.889 μm and 35.090 μm and 45.922 μm and 43.490 μm and 44.532 μm and 39.787 μm and 38.794 μm and 36.469 μm and 48.975 μm and 47.935 μm and 47.053 μm; Thickness of ONL, distance from optic disk 600 μm (single measurement) [4]: 54.862 μm and 55.200 μm and 39.132 μm and 42.030 μm and 46.694 μm and 48.910 μm and 53.036 μm and 51.036 μm and 37.502 μm and 37.761 μm and 41.216 μm and 41.515 μm and 39.682 μm and 37.237 μm and 46.859 μm and 44.945 μm and 44.217 μm and 44.145 μm and 50.162 μm and 48.259 μm and 48.902 μm and 41.131 μm and 49.194 μm and 53.714 μm and 39.721 μm and 42.784 μm and 37.125 μm and 46.818 μm and 44.498 μm and 50.125 μm; Thickness of ONL, distance from optic disk 900 μm (single measurement) [4]: 50.646 μm and 51.429 μm and 55.123 μm and 43.100 μm and 44.611 μm and 41.813 μm and 43.865 μm and 45.150 μm and 42.936 μm and 50.620 μm and 52.065 μm and 51.575 μm and 38.927 μm and 44.018 μm and 42.314 μm and 45.648 μm and 44.179 μm and 43.513 μm and 35.404 μm and 34.065 μm and 37.439 μm and 46.755 μm and 42.208 μm and 44.217 μm and 44.685 μm and 43.759 μm and 46.364 μm and 47.690 μm and 47.148 μm and 49.406 μm; Inner nuclear layer (INL) thickness compared with the control group, in words [5]: no obvious change was observed; Outer nuclear layer (ONL) thickness compared with the control group, in words [5]: statistically significant differences were observed at measurement sites between 600 to 900 μm from the optic disk; Inner plexiform layer (IPL) thickness compared with the control group, in words (test group 4 (positive control, intravenous), 300 to 900 μm from the optic disk): statistically significant suppression of retinal damage was shown at all measurement sites
